Results reported in patent US20090234023A1, “SUBSTITUTED HYDROXYACETOPHENONE DERIVATIVES” (Riemser Arzneimittel AG, priority 2004, published 2009).
Values after ≈ are worked out from the molar mass of the structure shown. Like-named read-outs stand apart in the source and are kept apart here.

Columns and labels:
[1] = test system: E. faecium; assay: Antimicrobial test (MIC), microtitre plates, TTC stain; type: cell-based; conditions: Enterococcus faecium, 48 h, 36° C.
Description: (§1) The inoculum for the tests was prepared by diluting the microorganisms in 0.85% NaCl, the dilution was set to level 0.5 according to McFarland and checked at 580 nm in the spectrophotometer. The cell suspensions were diluted to 10^4 UFC/ml for the application in the tests. The MIC tests were carried out according to the instructions of J. N. P. Eloff (Planta Medica Vol. 64, pp. 711-713, 1998)) in microtitre plates with 96 wells. […] The inoculum (100 μl) was placed in all wells and the plates were incubated for 48 h at a temperature of 36° C. The antimicrobial activity was detected by adding 20 μl of a 0.5% aqueous solution of TTC (tetrazolium chloride, Merck) per well. The minimal inhibition concentration (MIC) was defined as the lowest concentration of the compound that inhibited visible growth (indicated by TTC stain).

[2] = test system: B. subtilis; assay: as above; type: cell-based; conditions: Bacillus subtilis, 48 h, 36° C.
Description: as §1

[3] = test system: S. falcium; assay: as above; type: cell-based; conditions: 48 h, 36° C.
Description: as §1

[4] = test system: E. falcium; assay: as above; type: cell-based; conditions: 48 h, 36° C.
Description: as §1

[5] = test system: Micrococcus luteus; assay: as above; type: cell-based; conditions: 48 h, 36° C.
Description: as §1

[6] = test system: Rhodococcus equi; assay: as above; type: cell-based; conditions: Rhodococcus (subgen. Prescottella) equi, 48 h, 36° C.
Description: as §1

[7] = test system: Staphylococcus aureus; assay: as above; type: cell-based; conditions: 48 h, 36° C.
Description: as §1

[8] = test system: S. epidermides; assay: as above; type: cell-based; conditions: 48 h
Description: as §1

[9] = test system: Salmonella choterasuis; assay: as above; type: cell-based; conditions: Salmonella choterasuis (Tables 3, 4: Salmonella), 48 h, 36° C.
Description: as §1

[10] = test system: Escherichia coli; assay: as above; type: cell-based; conditions: 48 h, 36° C.
Description: as §1

[11] = test system: Candida albicans; assay: as above; type: cell-based; conditions: 48 h, 36° C.
Description: as §1

[12] = test system: human cancer cell lines NCI-460, MCF-7, NCI-ADR, UACC-62, K-562, HT-29, 786-0, OVCAR-3, PC-3; assay: SRB test, all tested human cancer cell lines (FIGS. 1-6)
[13] = test system: Lung NCI-460; conditions: for cytocidal activity: NCI-460 (lung cancer cell line); for ED50 (effective dosage which killed 50% of the human cancer cells): NCI460, 48 hours incubation
[14] = test system: skin cancer (melanoma) UACC-62; conditions: for ED50 (effective dosage which killed 50% of the human cancer cells): UACC62, 48 hours incubation
[15] = test system: mamma (breast) MCF-7; conditions: MCF7, 48 hours incubation
[16] = test system: WI38 (fibroblasts); assay: Comparison test on non-pathogenic line; conditions: WI38, non-pathogenic line for comparison

Row | SMILES | MIC [2] [µg/mL] | MIC [4] [µg/mL] | MIC [5] [µg/mL] | MIC [6] [µg/mL] | MIC [7] [µg/mL] | MIC [10] [µg/mL] | MIC [11] [µg/mL] | MIC [1] [µg/mL] | MIC [3] [µg/mL] | MIC [9] [µg/mL] | concentration at which cytostatic activity begins ([12]; against all tested cell lines) [µg/mL] | other results
1 | CC(=O)c1ccc(OCC=C(C)C)cc1OCC=C(C)C [2,4O, 1-[2,4-bis(3-methylbut-2-enyloxy)phenyl]ethanone] | 500 to 1000 (≈ 1730 to 3470 µM) | – | 500 to 1000 (≈ 1730 to 3470 µM) | 500 to 1000 (≈ 1730 to 3470 µM) | 500 to 1000 (≈ 1730 to 3470 µM) | 500 to 1000 (≈ 1730 to 3470 µM) | 500 to 1000 (≈ 1730 to 3470 µM) | 500 to 1000 (≈ 1730 to 3470 µM) | 500 to 1000 (≈ 1730 to 3470 µM) | 500 to 1000 (≈ 1730 to 3470 µM) | 25 | MIC [8]: 500 to 1000 µg/mL (≈ 1730 to 3470 µM); concentration at which cytocidal activity begins ([12]; against all tested cell lines): 250 µg/mL
2 | C=CC(C)(C)c1cc(CC=C(C)C)cc(C(C)=O)c1O [LMK7, 1-[3-(1,1-dimethylallyl)-2-hydroxy-5-(3-methylbut-2-enyl)phenyl]-ethanone] | – | – | – | – | – | – | – | – | – | – | 25 | cytocidal activity [13]: did not, however, exhibit any cytocidal activity
3 | CC(=O)c1ccc(OCC=C(C)C)cc1 [LP1, 1-[4-(3-methylbut-2-enyloxy)phenyl]ethanone] | > 1500 | – | > 1500 | > 1500 | > 1500 | > 1500 | > 1500 | > 1500 | > 1500 | 120 to 250 (≈ 587 to 1220 µM) | 25 | MIC [8]: 60 to 120 µg/mL (≈ 294 to 587 µM); melting point: 47 °C; concentration at which cytocidal activity begins ([12]; against all tested cell lines): 250 µg/mL

More lines, main results first:

Row | MIC [2] [µg/mL] | MIC [4] [µg/mL] | MIC [5] [µg/mL] | MIC [6] [µg/mL] | MIC [7] [µg/mL] | MIC [10] [µg/mL] | MIC [11] [µg/mL] | SMILES | MIC [1] [µg/mL] | MIC [3] [µg/mL] | MIC [9] [µg/mL] | concentration at which cytostatic activity begins ([12]; against all tested cell lines) [µg/mL] | other results
4 | 20 (≈ 61.9 µM) | 120 (≈ 371 µM) | 50 (≈ 155 µM) | 40 (≈ 124 µM) | 20 (≈ 61.9 µM) | 40 (≈ 124 µM) | – | O=C(N[C@H](CO)[C@H](O)c1ccc([N+](=O)[O-])cc1)C(Cl)Cl [Chloramphenicol, reference compound] | 120 (≈ 371 µM) | 120 (≈ 371 µM) | 60 (≈ 186 µM) | – | MIC ([8]; S. epidermides, 36° C., read-out: MIC): 40 µg/mL (≈ 124 µM)
5 | > 1000 | 500 to 1000 (≈ 1840 to 3670 µM) | 500 to 1000 (≈ 1840 to 3670 µM) | > 1000 | > 1000 | > 1000 | 900 (≈ 3300 µM) | CC(=O)c1cc(CC=C(C)C)ccc1OCC=C(C)C [Compound L3, 1-[5-(3-methylbut-2-enyl)-2-(3-methylbut-2-enyloxy)phenyl]-ethanone] | – | – | > 1500 | – | –
6 | 500 to 1000 (≈ 2450 to 4900 µM) | 250 (≈ 1220 µM) | 250 to 500 (≈ 1220 to 2450 µM) | > 1000 | 500 (≈ 2450 µM) | > 1000 | 60 (≈ 294 µM) | CC(=O)c1ccccc1OCC=C(C)C [Compound L1, 1-[2-(3-methylbut-2-enyloxy)phenyl]ethanone] | – | – | 250 (≈ 1220 µM) | – | ED50 (effective dosage which killed 50% of the human cancer cells) [14]: 45.0 µg/mL; cytocidal activity ([14]; UACC-62): cytocidal activity; ED50 (effective dosage which killed 50% of the human cancer cells) [15]: 25.0 µg/mL; cytostatic activity (inhibition of cell growth) ([12]; against all tested cell lines): cytostatic activity; ED50 (effective dosage which killed 50% of the human cancer cells) [13]: 25.0 µg/mL; cytocidal activity [13]: cytocidal activity
7 | 500 to 1000 (≈ 2450 to 4900 µM) | 500 to 1000 (≈ 2450 to 4900 µM) | 500 to 1000 (≈ 2450 to 4900 µM) | > 1000 | > 1000 | 50 (≈ 245 µM) | 50 (≈ 245 µM) | CC(=O)c1cc(CC=C(C)C)ccc1O [Compound L2] | – | – | 500 to 1000 (≈ 2450 to 4900 µM) | – | activity against fibroblasts [16]: not active against fibroblasts; activity against fibroblasts ([16]; listed as 1-[2-Hydroxy-5-(3-methylbut-2-enyl)ethanone): without damaging the fibroblasts; ED50 (effective dosage which killed 50% of the human cancer cells) [14]: 4.2 µg/mL; ED50 (effective dosage which killed 50% of the human cancer cells) [15]: 6.0 µg/mL; activity on all cell lines ([12]; at concentrations ranging between 0.5 and 250 μg/ml): very strong activity; ED50 (effective dosage which killed 50% of the human cancer cells) [13]: 9.0 µg/mL
